Laboratory results: PMC6377466 (Proceedings of the National Academy of Sciences of the …, 2019)

Experiments:
[1] = biological target: T1, HRAS^G12V (Homo sapiens, UniProt P01112, G12V); assay: cell BRET RAS-effector interaction assay, dose response […]; assay type: cell-based
T1 construct: full-length (RLuc8 fusion); with CRAF

[2] = biological target: T2, NRAS^Q61H (Homo sapiens, UniProt P01111, Q61H); assay: as above; assay type: cell-based
T2 construct: full-length (RLuc8 fusion); with CRAF

[3] = biological target: T3, KRAS166^G12V (Homo sapiens, UniProt P01116, G12V); assay: SPR screen and waterLOGSY NMR; assay type: binding
T3 construct: gene KRAS; KRAS166

## COc1cccc(-c2ccc(Nc3ccc(CN(C)C)cc3)c(OC)c2F)c1 [Ch-3]
[1]
  cell BRET RAS-effector interaction assay, dose response 5-20 μM: Ch-3 interferes with NRAS and HRAS isoforms using the BRET biosensor assay
[2]
  cell BRET RAS-effector interaction assay, dose response 5-20 μM: Ch-3 interferes with NRAS and HRAS isoforms using the BRET biosensor assay

## COc1cccc(-c2cccc(CC3(C(=O)NCCCn4ccnc4)CCOCC3)c2)c1 [PPIN-2]
[3]
  SPR screen and waterLOGSY NMR: PPIN-1 and -2 were confirmed to bind to KRAS166^G12V

## CCCN1CCN(C(=O)c2c[nH]cn2)CC(Cc2ccc(-c3ccccc3)cc2)C1=O (stereo not shown) [PPIN-1]
[3]
  SPR screen and waterLOGSY NMR: PPIN-1 and -2 were confirmed to bind to KRAS166^G12V
